Each structure is given as a SMILES string.

We go through 74 molecules from US8232406B2, “c-MET protein kinase inhibitors” (Vertex Pharmaceuticals Incorporated, priority 2006, dated 2012).

c-MET, sequence (P08581 25-1390): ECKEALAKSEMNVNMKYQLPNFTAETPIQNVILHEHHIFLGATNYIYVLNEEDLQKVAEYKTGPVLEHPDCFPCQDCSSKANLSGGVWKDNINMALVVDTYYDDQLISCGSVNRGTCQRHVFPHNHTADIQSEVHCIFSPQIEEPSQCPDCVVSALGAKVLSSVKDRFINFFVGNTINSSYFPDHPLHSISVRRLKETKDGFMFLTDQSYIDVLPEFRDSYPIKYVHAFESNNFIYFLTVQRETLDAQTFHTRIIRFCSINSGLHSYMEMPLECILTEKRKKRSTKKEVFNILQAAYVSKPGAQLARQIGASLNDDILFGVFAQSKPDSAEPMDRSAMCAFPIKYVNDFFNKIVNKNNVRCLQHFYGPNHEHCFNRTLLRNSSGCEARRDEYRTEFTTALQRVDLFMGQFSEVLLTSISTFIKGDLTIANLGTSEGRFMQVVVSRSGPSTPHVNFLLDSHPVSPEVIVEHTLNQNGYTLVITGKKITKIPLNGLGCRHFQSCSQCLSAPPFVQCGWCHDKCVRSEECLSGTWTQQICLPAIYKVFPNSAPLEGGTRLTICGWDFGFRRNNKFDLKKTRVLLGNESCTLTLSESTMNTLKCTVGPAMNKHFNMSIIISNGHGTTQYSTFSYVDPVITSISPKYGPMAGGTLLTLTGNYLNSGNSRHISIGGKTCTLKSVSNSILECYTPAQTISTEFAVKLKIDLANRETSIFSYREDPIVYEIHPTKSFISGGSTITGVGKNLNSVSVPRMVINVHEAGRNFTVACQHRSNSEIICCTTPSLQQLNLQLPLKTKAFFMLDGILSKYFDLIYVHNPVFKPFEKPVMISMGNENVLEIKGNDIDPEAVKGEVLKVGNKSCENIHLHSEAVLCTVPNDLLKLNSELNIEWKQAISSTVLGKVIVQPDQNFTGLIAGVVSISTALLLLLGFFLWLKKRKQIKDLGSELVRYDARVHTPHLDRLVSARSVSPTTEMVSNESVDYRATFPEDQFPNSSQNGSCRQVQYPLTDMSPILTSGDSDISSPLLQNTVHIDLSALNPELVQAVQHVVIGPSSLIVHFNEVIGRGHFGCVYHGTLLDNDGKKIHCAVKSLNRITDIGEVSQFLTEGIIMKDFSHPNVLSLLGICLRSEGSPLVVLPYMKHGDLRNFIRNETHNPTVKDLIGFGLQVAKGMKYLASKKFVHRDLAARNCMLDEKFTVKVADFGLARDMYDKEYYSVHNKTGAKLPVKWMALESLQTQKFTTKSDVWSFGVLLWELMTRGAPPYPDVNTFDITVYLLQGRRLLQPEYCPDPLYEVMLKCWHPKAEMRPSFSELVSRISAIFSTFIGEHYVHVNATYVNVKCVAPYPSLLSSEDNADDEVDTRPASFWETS

For the experiment, the target named is c-MET (Homo sapiens, UniProt P08581). The experiment is described as follows: Ki determination for the inhibition of c-MET (standard radiometric 33P-ATP kinase assay, polyE4Y substrate). The experiment is classed as biochemical. The settings on record: 1.0 nM c-Met, 35 μM ATP, 0.5 mg/mL polyE4Y, 20 min; competitive tight-binding fit. The procedure, abridged:
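Ki obtained by fitting data to competitive tight-binding inhibition kinetics. c-Met at 1.0 nM phosphorylated polyE4Y (0.5 mg/mL) with 35 μM 33P-ATP for 20 min in pH 7.5 HEPES buffer with MgCl2, NaCl, BSA and DTT. Incorporated label measured by scintillation after TCA precipitation on filters.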
Regarding `COc1c(F)cccc1-n1nnnc1-c1cc(-c2ccc(CN3CCCC3)cc2)cnc1N` [I-A-604], the Ki (in general, the dissociation constant of the complex between target and ligand, obtained from inhibition or displacement) is 100 to 1000 nM. Consider `CN(C)Cc1ccc(-c2cnc(N)c(-c3nnnn3-c3cc(F)cc(F)c3Cl)c2)cc1` [I-A-605], for which the Ki was 100 to 1000 nM. As for `COc1ccc(F)cc1-n1nnnc1-c1cc(-c2ccc(CN(C)C)cc2)cnc1N` [I-A-606], the Ki was in the range of 100 to 1000 nM. `CC(=O)Nc1ccc(-c2cnc(N)c(-c3nnnn3-c3c(F)cccc3F)c2)cc1` [I-A-607] gave an inhibition constant Ki of 100 to 1000 nM. On to `Nc1ncc(-c2cccnc2)cc1-c1nnnn1-c1c(F)cccc1F` [I-A-608], for which the Ki is 100 to 1000 nM. As to `Nc1ncc(-c2cccnc2)cc1-c1nnnn1-c1c(Cl)cccc1Cl` [I-A-609], the Ki was in the range of 100 to 1000 nM.

The molecule `CC(=O)Nc1cccc(-c2cnc(N)c(-c3nnnn3-c3c(F)cccc3F)c2)c1` [I-A-610] gave a Ki of 100 to 1000 nM. In the case of `CC(=O)Nc1cccc(-c2cnc(N)c(-c3nnnn3-c3c(Cl)cccc3Cl)c2)c1` [I-A-611] it was 100 to 1000 nM. In the case of `CC(=O)Nc1cccc(-c2cnc(N)c(-c3nnnn3-c3c(F)cccc3Cl)c2)c1` [I-A-612] it was 100 to 1000 nM; in that of `CC(=O)Nc1cccc(-c2cnc(N)c(-c3nnnn3-c3c(F)ccc(F)c3Cl)c2)c1` [I-A-613], 100 to 1000 nM; in that of `CC(=O)Nc1ccc(-c2cnc(N)c(-c3nnnn3-c3c(F)ccc(F)c3Cl)c2)cc1` [I-A-614], 100 to 1000 nM. As to `Nc1ncc(-c2ccc(CN3CCCC3)cc2)cc1-c1nnnn1-c1c(F)cccc1F` [I-A-615], the Ki is ≤ 100 nM. Turning to `Nc1ncc(-c2ccc(CN3CCCC3)cc2)cc1-c1nnnn1-c1c(F)cccc1Cl` [I-A-616], the Ki is ≤ 100 nM.

`Nc1ncc(-c2cccnc2)cc1-c1nnnn1-c1c(F)cccc1Cl` [I-A-617] registered a Ki of 100 to 1000 nM. In turn, `Nc1ncc(-c2cccnc2)cc1-c1nnnn1-c1c(F)ccc(F)c1Cl` [I-A-618] yielded an inhibitory constant (Ki) of 100 to 1000 nM. In the case of `CN(C)Cc1ccc(-c2cnc(N)c(-c3nnnn3-c3c(F)cccc3F)c2)cc1` [I-A-619] it was ≤ 100 nM. `Nc1ncc(-c2ccc(CN3CCCC3)cc2)cc1-c1nnnn1-c1c(F)ccc(F)c1Cl` [I-A-620]: the inhibitory constant (Ki) is ≤ 100 nM. `CC(=O)Nc1ccc(-c2cnc(N)c(-c3nnnn3-c3c(Cl)cccc3Cl)c2)cc1` [I-A-621] came in with a Ki of 100 to 1000 nM. Take `Nc1ncc(-c2ccc(CN3CCCC3)cc2)cc1-c1nnnn1-c1c(Cl)cccc1Cl` [I-A-622]: the inhibitory constant (Ki) was ≤ 100 nM. In the case of `CN(C)Cc1ccc(-c2cnc(N)c(-c3nnnn3-c3c(F)cccc3Cl)c2)cc1` [I-A-623], the inhibition constant (Ki) is ≤ 100 nM. As to `Cc1c(Cl)cccc1-n1nnnc1-c1cc(-c2cnn(C3CCNCC3)c2)cnc1N` [I-A-624], the inhibitory constant (Ki) was ≤ 100 nM.

`Nc1ncc(-c2cnn(C3CCNCC3)c2)cc1-c1nnnn1-c1cc(F)ccc1F` [I-A-625] displayed a Ki of 100 to 1000 nM. Consider `Nc1ncc(-c2cnn(C3CCNCC3)c2)cc1-c1nnnn1-c1cccc(Cl)c1F` [I-A-626], for which the Ki is ≤ 100 nM. In the case of `Nc1ncc(-c2cnn(C3CCNCC3)c2)cc1-c1nnnn1-c1cc(F)cc(F)c1` [I-A-627] it was 100 to 1000 nM. Take `Nc1ncc(-c2cnn(C3CCNCC3)c2)cc1-c1nnnn1-c1c(F)cccc1F` [I-A-628]: the Ki is ≤ 100 nM. Regarding `CN(C)Cc1ccc(-c2cnc(N)c(-c3nnnn3-c3c(Cl)cccc3Cl)c2)cc1` [I-A-629], the Ki is ≤ 100 nM. On to `CN(C)Cc1ccc(-c2cnc(N)c(-c3nnnn3-c3c(F)ccc(F)c3Cl)c2)cc1` [I-A-630], for which the Ki was ≤ 100 nM. Take `Nc1ncc(-c2cnn(C3CCNCC3)c2)cc1-c1nnnn1-c1c(Cl)cccc1Cl` [I-A-631]: the Ki was ≤ 100 nM. Consider `Cc1ccc(Cl)cc1-n1nnnc1-c1cc(-c2cnn(C3CCNCC3)c2)cnc1N` [I-A-632], for which the inhibition constant (Ki) was 100 to 1000 nM. In the case of `COc1ccc(F)cc1-n1nnnc1-c1cc(-c2cnn(C3CCNCC3)c2)cnc1N` [I-A-633] it was 100 to 1000 nM; in that of `Nc1ncc(-c2cnn(C3CCNCC3)c2)cc1-c1nnnn1-c1cc(F)cc(F)c1Cl` [I-A-634], 100 to 1000 nM. On to `Nc1ncc(-c2cnn(C3CCNCC3)c2)cc1-c1nnnn1-c1cc(Cl)ccc1F` [I-A-635], for which the inhibitory constant (Ki) is ≤ 100 nM. Take `Nc1ncc(-c2cnn(C3CCNCC3)c2)cc1-c1nnnn1-c1cc(Cl)ccc1Cl` [I-A-636]: the inhibitory constant (Ki) lay within 100 to 1000 nM.

With `Nc1ncc(-c2cnn(C3CCNCC3)c2)cc1-c1nnnn1-c1cc(F)ccc1Cl` [I-A-637], the Ki is 100 to 1000 nM.

Consider `COc1c(F)cccc1-n1nnnc1-c1cc(-c2cnn(C3CCNCC3)c2)cnc1N` [I-A-638], for which the Ki is 100 to 1000 nM. `CC(=O)Nc1ccc(-c2cnc(N)c(-c3nnnn3-c3c(F)cccc3Cl)c2)cc1` [I-A-639]: the Ki fell in the range of 100 to 1000 nM.

Turning to `Nc1ncc(-c2cnn(C3CCNCC3)c2)cc1-c1nnnn1-c1c(F)ccc(F)c1Cl` [I-A-640], the Ki was ≤ 100 nM.

`CC(=O)N1CCC[C@H]1C(=O)N1CC=C(c2cnc(N)c(-c3nnnn3-c3cccc(F)c3F)c2)CC1` [I-A-641] gave a Ki of 100 to 1000 nM.

With `Nc1ncc(C2=CCN(C(=O)[C@@H]3CCC(=O)N3)CC2)cc1-c1nnnn1-c1cccc(F)c1F` [I-A-642], the inhibition constant (Ki) is ≤ 100 nM.

With `Nc1ncc(C2=CCN(CC3CCOC3)CC2)cc1-c1nnnn1-c1cccc(F)c1F` (centres unmarked) [I-A-643], the Ki was in the range of 100 to 1000 nM.

Molecule `Nc1ncc(C2=CCN(Cc3cccnc3)CC2)cc1-c1nnnn1-c1cccc(F)c1F` [I-A-644] registered an inhibition constant (Ki) of 100 to 1000 nM. In turn, `Nc1ncc(C2=CCCNCC2)cc1-c1nnnn1-c1cccc(F)c1F` [I-A-646] showed a Ki of 100 to 1000 nM.

Take `Nc1ncc(C2=CCCN(C(=O)C(F)(F)F)CC2)cc1-c1nnnn1-c1cccc(F)c1F` [I-A-647]: the inhibition constant Ki lay in the range of 100 to 1000 nM. `CC(=O)N1CCC[C@@H]1C(=O)N1CC=C(c2cnc(N)c(-c3nnnn3-c3cccc(F)c3F)c2)CC1` [I-A-649]: the Ki lay in the range of 100 to 1000 nM. Turning to `Nc1ncc(-c2cnn(C3CNC3)c2)cc1-c1nnnn1-c1cccc(Cl)c1F` [I-A-650], the inhibition constant (Ki) was ≤ 100 nM. As to `Nc1ncc(-c2cnn(C3CCCNCC3)c2)cc1-c1nnnn1-c1cccc(Cl)c1F` (centres unmarked) [I-A-651], the inhibitory constant (Ki) is ≤ 100 nM. In the case of `Nc1ncc(-c2ccn(C3CCNCC3)c2)cc1-c1nnnn1-c1cccc(Cl)c1F` [I-A-652] it was ≤ 100 nM; in that of `Nc1ncc(-c2cc3c(s2)CCNCC3)nc1-c1nnnn1-c1cccc(F)c1F` [I-A-653], ≤ 100 nM; in that of `Nc1ncc(-c2csc(C3CCNCC3)c2)nc1-c1nnnn1-c1cccc(F)c1F` [I-A-654], 100 to 1000 nM. For `Nc1ncc(-c2cnn([C@H]3CCCNC3)c2)nc1-c1nnnn1-c1cccc(F)c1F` [I-A-655], the inhibition constant Ki is ≤ 100 nM. In the case of `Nc1ncc(-c2cnn(C3CCCNCC3)c2)nc1-c1nnnn1-c1cccc(F)c1F` (centres unmarked) [I-A-656] it was ≤ 100 nM; in that of `Nc1ncc(C2=CCN(C(=O)[C@H]3CCC(=O)N3)CC2)cc1-c1nnnn1-c1cccc(F)c1F` [I-A-657], ≤ 100 nM; in that of `Nc1ncc(-c2cnn([C@H]3CCCNC3)c2)nc1-c1nnnn1-c1cccc(Cl)c1F` [I-A-658], ≤ 100 nM. For the molecule `Nc1ncc(-c2cnn([C@@H]3CCCNC3)c2)nc1-c1nnnn1-c1cccc(F)c1F` [I-A-659], the Ki was ≤ 100 nM.

As to `Nc1ncc(-c2cnn([C@@H]3CCNC3)c2)nc1-c1nnnn1-c1cccc(F)c1F` [I-A-660], the Ki is ≤ 100 nM. In the case of `CN(C)Cc1ccc(-c2cnc(N)c(-c3nn(C4CCCCC4)cc3-c3cccc(Cl)c3Cl)c2)cc1` [I-B-11] it was 100 to 1000 nM.

`CN(C)Cc1ccc(-c2cnc(N)c(-c3nn(CCO)cc3-c3cccc(Cl)c3Cl)c2)cc1` [I-B-14] gave a Ki of 100 to 1000 nM. In turn, `Cn1cc(-c2cccc(Cl)c2Cl)c(-c2cc(-c3cccnc3)cnc2N)n1` [I-B-16] had a Ki of 100 to 1000 nM. In turn, `Cn1cc(-c2cccc(Cl)c2Cl)c(-c2cc(-c3ccc(N4CCCC4)nc3)cnc2N)n1` [I-B-20] gave a Ki of 100 to 1000 nM. `CN1CCN(c2ccc(-c3cnc(N)c(-c4nn(C)cc4-c4cccc(Cl)c4Cl)c3)cc2)CC1` [I-B-21]: the Ki lay within 100 to 1000 nM.

As to `Cn1cc(-c2cccc(Cl)c2Cl)c(-c2cc(-c3cnn(C4CCNCC4)c3)cnc2N)n1` [I-B-22], the Ki was ≤ 100 nM. In turn, `Nc1ncc(-c2cccnc2)cc1-c1nnsc1-c1cccc(Cl)c1Cl` [I-C-1] gave a Ki of 100 to 1000 nM. For `CN1CCN(c2ccc(-c3cnc(N)c(-c4nnsc4-c4cccc(Cl)c4Cl)c3)cc2)CC1` [I-C-3], the Ki was ≤ 100 nM. In the case of `Nc1ncc(-c2ccc(N3CCCC3)nc2)cc1-c1nnsc1-c1cccc(Cl)c1Cl` [I-C-4] it was 100 to 1000 nM; in that of `CN(C)Cc1ccc(-c2cnc(N)c(-c3nnsc3-c3cccc(Cl)c3Cl)c2)cc1` [I-C-5], ≤ 100 nM; in that of `Cc1nc(-c2cc(-c3cccnc3)cnc2N)c(-c2cccc(Cl)c2Cl)o1` [I-C-6], ≤ 100 nM.

Turning to `Nc1ncc(-c2cccnc2)cc1-c1ncsc1-c1cccc(Cl)c1Cl` [I-C-8, 3-(5-(2,3-Dichlorophenyl)thiazol-4-yl)-5-(pyridin-3-yl)pyridin-2-amine], the Ki was 100 to 1000 nM. Turning to `CN1CCN(c2ccc(-c3cnc(N)c(-c4ncsc4-c4cccc(Cl)c4Cl)c3)cc2)CC1` [I-C-11], the Ki lay in the range of 100 to 1000 nM.

Take `Nc1ncc(-c2cccnc2)cc1-c1nc2cnccc2n1-c1cccc(F)c1F` [I-D-1]: the inhibition constant Ki is ≤ 100 nM. For `CN1CCN(c2ccc(-c3cnc(N)c(-c4nc5cnccc5n4-c4cccc(F)c4F)c3)cc2)CC1` [I-D-2], the Ki was ≤ 100 nM. As for `Nc1ncc(-c2ccc(CN3CCCC3)cc2)cc1-c1nc2cnccc2n1-c1cccc(F)c1F` [I-D-3], the Ki was ≤ 100 nM.

Turning to `CN(C)Cc1ccc(-c2cnc(N)c(-c3nc4cnccc4n3-c3cccc(F)c3F)c2)cc1` [I-D-4], the Ki is ≤ 100 nM. Regarding `CN1CCN(Cc2ccc(-c3cnc(N)c(-c4nc5cnccc5n4-c4cccc(F)c4F)c3)cc2)CC1` [I-D-5], the inhibitory constant (Ki) was ≤ 100 nM. Regarding `CC(=O)N1CCN(Cc2ccc(-c3cnc(N)c(-c4nc5cnccc5n4-c4cccc(F)c4F)c3)cc2)CC1` [I-D-6], the Ki was ≤ 100 nM.
